Experiment [1] deals with T1, fatty acyl-CoA reductase (FACoAR) from M. aquaeolei VT8 (Marinobacter nauticus (Marinobacter aquaeolei), UniProt A1U3L3).
T1 sequence (A1U3L3 1-661): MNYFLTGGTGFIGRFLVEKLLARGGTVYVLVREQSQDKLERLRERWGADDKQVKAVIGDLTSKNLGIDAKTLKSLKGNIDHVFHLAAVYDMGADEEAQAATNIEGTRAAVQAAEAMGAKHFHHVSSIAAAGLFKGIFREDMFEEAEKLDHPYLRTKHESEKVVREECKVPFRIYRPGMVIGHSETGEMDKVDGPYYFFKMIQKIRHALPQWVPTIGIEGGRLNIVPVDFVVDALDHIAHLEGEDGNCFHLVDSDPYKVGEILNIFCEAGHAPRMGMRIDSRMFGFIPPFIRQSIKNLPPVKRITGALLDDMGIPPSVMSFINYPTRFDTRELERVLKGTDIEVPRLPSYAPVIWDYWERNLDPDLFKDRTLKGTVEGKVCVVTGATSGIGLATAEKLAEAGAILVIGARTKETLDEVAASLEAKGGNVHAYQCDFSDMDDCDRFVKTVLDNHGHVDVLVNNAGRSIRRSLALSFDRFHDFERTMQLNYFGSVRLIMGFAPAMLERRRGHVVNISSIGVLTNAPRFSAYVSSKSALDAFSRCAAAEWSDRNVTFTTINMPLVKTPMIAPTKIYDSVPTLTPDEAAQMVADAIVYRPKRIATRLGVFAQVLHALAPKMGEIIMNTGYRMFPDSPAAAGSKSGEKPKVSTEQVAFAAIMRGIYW
The experiment in a line: Continuous spectrophotometric DTNB assay (release of free CoA). It is filed as biochemical. As to conditions: for Rate of Reaction (nmol NTB^2− min^−1 mg protein^−1): 6 μM of the respective CoA as substrate; for % Specific Activity of Palmitoyl-CoA: percent of the specific activity of palmitoyl-CoA, 6 μM substrate. Here is the method: Buffers and solutions were prepared as described above for NADPH assays. Each assay was conducted by adding 75 μL of the 2 mg/mL NADPH stock solution in buffer, 58 μg of protein, and 10 μL of a 10 mg/mL solution of DTNB in DMSO, varying concentrations of acyl-CoA and buffer to bring the volume to 1 mL. Reduction of acyl-CoA substrate was monitored by following the increase of the 2-nitro-5-thiobenzoate (NTB^2−) dianion concentration at 412 nm. […] These initial rates were used to calculate the apparent K, and Vmax values using the Igor Pro (Wavemetrics, Lake Oswego, Oreg.) software package fitting the initial rates to the Hill equation (Equation 1) where v is the initial velocity, Vmax is the maximum calculated velocity, [S]^n is the concentration of substrate and n is the Hill coefficient, K0.5^n is the approximation of Km or the approximate substrate concentration at which half of Vmax is obtained at a specific value of the Hill coefficient n. In the case of enzyme inhibition, a modified version of the Hill equation allowing for cooperative inhibition (Equation 2) where all of the coefficients are defined as for the Hill equation and the additional [i]^n is the concentration of inhibitor and n is the Hill coefficient. The Ki^n is the approximate concentration of inhibitor it takes to double the K0.5 at a specific value of the Hill coefficient n.

Experiment [2] deals with FACoAR from M. aquaeolei VT8. Kind of experiment: Initial activity assay, products identified by TLC and GC. The format is biochemical, Marinobacter aquaeolei VT8. As to conditions: 200 μM substrate, NADPH. Here is the method:
Initial activity assays were conducted using thin layer chromatography (TLC) and a gas chromatography (GC) assay similar to that described previously (29). To test activity, 0.3 mg of protein was added to a reaction vessel along with 200 μM palmitoleyl-CoA and 800 μM NADPH, NADH, NADP^+, NAD^+ in reaction buffer containing 20 mM Tris-HCl pH 7.0 and 50 mM NaCl. Reactions were allowed to proceed for 1 hr before quenching by the addition of 2 mL of hexane. The hexane water mixture was vortexed vigorously for 30 seconds before centrifuging to separate phases. The hexane phase was removed to a clean container and the solvent was removed under a stream of argon. […] The TLC plate was developed in a 2:15:90 volumetric ratio of glacial acetic acid:ethyl ether:hexane. After development, visualization was performed in a sealed jar with iodine crystals for 10 min. The TLC results were verified by GC analysis of the sample prepared in the same way and compared to retention times of known standards.

Experiment [3] concerns the target T1, fatty acyl-CoA reductase (FACoAR) from M. aquaeolei VT8. Kind of experiment: Continuous spectrophotometric NADPH assay (decrease of NADPH at 340 nm). The format is biochemical. To be noted: FIG. 5, NADPH assay, acyl-CoA substrate. How it is done:
All assays were conducted in a total volume of 1 mL. A buffer containing 50 mM NaCl, 20 mM Tris-HCl pH 7.0, and 0.5 mg/mL BSA was prepared along with a 1 mM stock of aldehyde dissolved in dimethyl sulfoxide (DMSO) or a 0.1 mM stock of the acyl-CoA, and […] NADPH. All components including protein were degassed in sealed vials and placed under an argon atmosphere. NADPH was degassed as the solid prior to the addition of degassed buffer. Each assay was conducted by adding 75 μL of the NADPH stock, 58 μg protein for acyl-CoA assays or 15 μg protein for aldehyde assays, varying concentrations of aldehyde or acyl-CoA and buffer to bring the final volume to 1 mL. Each sample was continuously monitored for the decrease of NADPH at 340 nm on a Varian 50 Bio UV-visible spectrophotometer (Walnut Creek, Calif.). Initial rates were calculated in Excel using the linear initial rates of reaction obtained from the spectrophotometric assays by obtaining the slope from the best. In line and calculating nmol of NADPH oxidized per second. (Microsoft, Redmond, Wash.). These initial rates were used to calculate Km and Vmax values using the Igor Pro software package (Wavemetrics, Lake Oswego, Oreg.) fitting the initial rates to the Hill equation (31). NADPH specific activity assays were conducted identically as described above using a fixed 60 μM concentration of the various aldehyde substrates or 6 μM of the various acyl-CoA substrates.

For experiment [4] the target is unchanged. The experiment in a line: Palmitoyl CoA inhibition of fatty aldehyde (cis-11-hexadecenal) reduction. The format is biochemical. As to conditions: competitive inhibition of cis-11-hexadecenal reduction; 0, 1, 2, 4 μM inhibitor; fit to equation 2; read-out: apparent Ki. How it is done: The (◯) denote assays performed with 0 μM palmitoyl CoA, ([…]) denote assays performed with 1 palmitoyl CoA, (□) denote assays performed with 2 μM palmitoyl CoA, and (Δ) denote assays performed with 4 μM palmitoyl CoA. Specific activities are plotted in units of nmol NADP^+ min^−1 mg protein^−1. All assays were conducted in triplicate and are shown with error bars indicating SEM fit to equation 1 in the materials and methods section. The apparent Ki was determined by fitting all four data sets to equation 2 in the materials and methods.
All assays were conducted in a total volume of 1 mL. A buffer containing 50 mM NaCl, 20 mM Tris-HCl pH 7.0, and 0.5 mg/mL BSA was prepared along with a 1 mM stock of aldehyde dissolved in dimethyl sulfoxide (DMSO) or a 0.1 mM stock of the acyl-CoA, and 2.0 trig/mL NADPH. […] Each sample was continuously monitored for the decrease of NADPH at 340 nm on a Varian 50 Bio UV-visible spectrophotometer (Walnut Creek, Calif.). Initial rates were calculated in Excel using the linear initial rates of reaction obtained from the spectrophotometric assays by obtaining the slope from the best. […]
Buffers and solutions were prepared as described above for NADPH assays. […] Reduction of acyl-CoA substrate was monitored by following the increase of the 2-nitro-5-thiobenzoate (NTB^2−) dianion concentration at 412 nm. […]

Structures are written as SMILES.

As to `CCCCCC/C=C\CCCCCCCC(=O)SCCNC(=O)CCNC(=O)[C@H](O)C(C)(C)COP(=O)(O)OP(=O)(O)OC[C@H]1O[C@@H](n2cnc3c(N)ncnc32)[C@H](O)[C@@H]1OP(=O)(O)O` [Palmitoleyl-CoA], in experiment [1], the “Rate of Reaction (nmol NTB^2− min^−1 mg protein^−1)” value was 53.7 ± 1.1 nmol NTB^2− min^−1 mg protein^−1 and the “% Specific Activity of Palmitoyl-CoA” value was 93%. For the same compound, the “detectable product of reduction” value in experiment [2] is listed as “palmitoleyl alcohol”.

For the compound `CCCCCCCCCCCCCCCC(=O)SCCNC(=O)CCNC(=O)[C@H](O)C(C)(C)COP(=O)(O)OP(=O)(O)OC[C@H]1O[C@@H](n2cnc3c(N)ncnc32)[C@H](O)[C@@H]1OP(=O)(O)O` [Palmitoyl-CoA], in experiment [1], the “Vmax when CoA release was monitored” value was approximately 180 nmol/min/mg, the “maximal specific activity (CoA release)” value is given as 115 nmol of NTB/min/mg protein, the “Rate of Reaction (nmol NTB^2− min^−1 mg protein^−1)” value is recorded as 54.7 ± 4.7 nmol NTB^2− min^−1 mg protein^−1 and the “% Specific Activity of Palmitoyl-CoA” value is given as 100%. For the same compound, in experiment [1] (FIG. 5, DTNB assay), the “n (Hill coefficient)” value is on record as 2.8±0.7. The Vmax in experiment [1] (FIG. 5, DTNB assay, release of free CoA, Hill fit, substrate) was 115±7 nmol NTB^−2 min^−1 mg of protein^−1. Also, the “n (Hill coefficient)” value in experiment [3] stood at 2.6±0.3. The Vmax in experiment [3] (Hill fit) is 197±8 nmol NADP^+ min^−1 mg of protein^−1. The Ki in experiment [4] was 1900 ± 260 nM.
